The record followed here is PubChem BioAssay (NCI).

The structures appear in SMILES notation.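 Dose response: 5 concentrations. Exposure: 48 h. Format: 96-well plates. Endpoint: linear interpolation; highest concentration if not reached. The concentration for 50% growth inhibition is given as GI50. TGI: total growth inhibition.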

Among the test systems are A549 NSCLC; HCT-116 colon; KM12 colon; OVCAR-5 ovarian; OVCAR-8 ovarian; RXF 393 renal; SR leukemia; TK-10 renal; U251 CNS; UO-31 renal.
What all share (assay): NCI-60 cell line screen, 48 h

As to `CN(C)CCNC(=O)c1cccc2nc3c(Cl)cccc3nc12`, the TGI with A549 NSCLC was more than 35.6 µM; with HCT-116 colon, 16.1 µM; in the assay with KM12 colon it was 30.4 µM; in the assay on OVCAR-5 ovarian it was 16.7 µM; in the assay on OVCAR-8 ovarian, more than 44.3 µM; in the assay with RXF 393 renal, 16.6 µM. The TGI was more than 100 µM with SR leukemia, more than 54.8 µM in the assay with TK-10 renal, 30.5 µM with U251 CNS and more than 40.5 µM with UO-31 renal.

On to `CCOC(=O)c1cc(-c2ccc([N+](=O)[O-])cc2)n(-c2ccc(C(=O)O)c(O)c2)c1C`, for which the GI50 in the assay with A549 NSCLC is 3.38 µM; with HCT-116 colon, 2.78 µM; with KM12 colon it was 3.55 µM; with OVCAR-5 ovarian, 17.3 µM; with OVCAR-8 ovarian, 5.29 µM; with RXF 393 renal, 5.95 µM. The GI50 is 9.3 µM in the assay with SR leukemia, 6.18 µM in the assay on TK-10 renal, 3.61 µM in the assay with U251 CNS and 3.74 µM in the assay with UO-31 renal. The TGI with A549 NSCLC was 12.7 µM; in the assay with HCT-116 colon it was 11.6 µM; with KM12 colon it was 11.7 µM; in the assay on OVCAR-5 ovarian, 35.3 µM; with OVCAR-8 ovarian, 43.7 µM; in the assay on RXF 393 renal it was 20.3 µM. Besides, the TGI with SR leukemia was more than 100 µM; in the assay on TK-10 renal, 20 µM; in the assay on U251 CNS, 14.1 µM; in the assay on UO-31 renal, 18.3 µM.

As to `CC(C)(C)C1=NC(S)NC(CCC(=O)Nc2ccccc2[N+](=O)[O-])=C1` (stereo not given), the TGI with A549 NSCLC, in the assay on HCT-116 colon, in the assay with KM12 colon, in the assay on OVCAR-5 ovarian, in the assay with OVCAR-8 ovarian and with RXF 393 renal was more than 100 µM in each case. The TGI in the assay with SR leukemia, in the assay with TK-10 renal, with U251 CNS and with UO-31 renal was more than 100 µM each time.

In the case of `CN=C1NC(=O)/C(=C/c2ccc3ncccc3c2)S1`, the GI50 in the assay on A549 NSCLC is 5.13 µM; in the assay with HCT-116 colon it was 5.29 µM; in the assay on KM12 colon, 19.9 µM; in the assay on OVCAR-5 ovarian it was 9.52 µM; in the assay on OVCAR-8 ovarian, 7.73 µM; in the assay on RXF 393 renal it was 8.08 µM. Also, the GI50 in the assay on SR leukemia is 2.14 µM; in the assay with TK-10 renal, 6.02 µM; with U251 CNS, 5.19 µM; with UO-31 renal it was 5.29 µM. Further, the TGI in the assay on A549 NSCLC, in the assay with HCT-116 colon, in the assay with KM12 colon, in the assay on OVCAR-5 ovarian, in the assay on OVCAR-8 ovarian and in the assay with RXF 393 renal was more than 25 µM throughout. The TGI with SR leukemia is 16.7 µM; in the assay on TK-10 renal it was more than 25 µM; with U251 CNS, more than 25 µM; with UO-31 renal, more than 25 µM.

In the case of `COC(=O)[C@@H](C)C[C@H](Cc1ccccc1)NC(=O)c1nc([C@@H](C[C@H](C(C)C)N(C)C(=O)[C@@H](NC(=O)[C@H]2CCCN2C)C(C)C)OC(C)=O)sc1C`, the GI50 with A549 NSCLC is 0.0207 µM; in the assay with HCT-116 colon, less than 0.0025 µM; in the assay with KM12 colon, less than 0.0025 µM; with OVCAR-5 ovarian it was 0.0105 µM; in the assay with OVCAR-8 ovarian, less than 0.0025 µM; in the assay on RXF 393 renal, less than 0.0025 µM. The GI50 in the assay on SR leukemia was less than 0.0025 µM; with TK-10 renal, more than 25 µM; in the assay on U251 CNS it was 0.00347 µM; with UO-31 renal, 0.0154 µM. For the same compound, the TGI in the assay with A549 NSCLC, in the assay with HCT-116 colon, with KM12 colon, in the assay on OVCAR-5 ovarian, in the assay on OVCAR-8 ovarian and with RXF 393 renal was more than 25 µM in each case. The TGI in the assay on SR leukemia, in the assay on TK-10 renal, in the assay on U251 CNS and with UO-31 renal was more than 25 µM throughout.

For the compound `N#Cc1c(O)c2c(c(O)c1C#N)C(=O)c1ccccc1C2=O`, the GI50 was 1.62 µM in the assay with A549 NSCLC; 1.3 µM in the assay on HCT-116 colon; 2.59 µM in the assay with KM12 colon; 3.35 µM in the assay with OVCAR-5 ovarian; 2.33 µM with OVCAR-8 ovarian; 1.86 µM in the assay with RXF 393 renal. The GI50 in the assay on SR leukemia was 1.82 µM; in the assay with TK-10 renal, 4.2 µM; with U251 CNS, 1.92 µM; with UO-31 renal, 2.3 µM. In addition, the TGI in the assay on A549 NSCLC came out at 8.02 µM; in the assay with HCT-116 colon, 2.94 µM; with KM12 colon it was 12.1 µM; in the assay on OVCAR-5 ovarian it was 8.74 µM; in the assay on OVCAR-8 ovarian it was 6.48 µM; with RXF 393 renal, 6.27 µM. Also, the TGI in the assay on SR leukemia is 5.35 µM; in the assay with TK-10 renal, 13.8 µM; in the assay with U251 CNS it was 5.54 µM; in the assay with UO-31 renal, 9.81 µM.

In the case of `CC(=O)OCCc1cccnc1/C=N/O`, the TGI in the assay on A549 NSCLC, in the assay with HCT-116 colon, with KM12 colon, in the assay with OVCAR-5 ovarian, in the assay on OVCAR-8 ovarian and with RXF 393 renal was more than 100 µM each time. Further, the TGI in the assay with SR leukemia, in the assay with TK-10 renal, with U251 CNS and with UO-31 renal was more than 100 µM in each case.

In the case of `CCCCCCCCCCCCCCC1OC(=O)c2ccccc21` (stereo not given), the TGI with A549 NSCLC, in the assay with HCT-116 colon, in the assay with KM12 colon, in the assay on OVCAR-5 ovarian, in the assay with OVCAR-8 ovarian and in the assay with RXF 393 renal was more than 100 µM in each case. For the same compound, the TGI in the assay on SR leukemia, in the assay on TK-10 renal, with U251 CNS and in the assay on UO-31 renal was more than 100 µM each time.

For the compound `CCCCn1/c(=N/C(=S)N(C)C)ss/c1=N\C(=S)N(C)C`, the TGI with A549 NSCLC, in the assay with HCT-116 colon, in the assay on KM12 colon, in the assay with OVCAR-5 ovarian, in the assay on OVCAR-8 ovarian and with RXF 393 renal was more than 100 µM in each case. Moreover, the TGI with SR leukemia, in the assay on TK-10 renal, with U251 CNS and with UO-31 renal was more than 100 µM throughout.
